In brackets after ≈: the same amount, converted by molar mass. One block for each molecule: values may come before it. Residues, ends and D or L forms follow the SMILES beside them. *: point of attachment. X1 = CC[C@@]1(OCCS*)C(=O)OCc2c1cc1n(c2=O)Cc2cc3ccccc3nc2-1
Assays:
[1] = Stability in human plasma assessed as half life measured upto 24 hrs by UV/LC-MS analysis; type: ADME, cell-free
[2] = Aqueous solubility of compound at pH6.5; type: physicochemical; details: pH 6.5
HCT-116 [3] = assay: Antitumor activity against human HCT-116 cells xenografted in mouse assessed as tumor growth inhibition at 5 mg/kg administered once for every 2 days for 2 weeks relative to control; type: functional; set-up: scale not given: the % may be the effect or the level left; details: time 2 day
[4] = Drug recovery in bile duct cannulated rat bile measured for 48 hrs
[5] = Drug recovery in bile duct cannulated rat urine measured for 48 hrs
Neutrophil elastase [6] = target: T1, Neutrophil elastase (Homo sapiens, UniProt P08246); assay: Inhibition of human Neutrophil elastase
T1 sequence (P08246 whole entry): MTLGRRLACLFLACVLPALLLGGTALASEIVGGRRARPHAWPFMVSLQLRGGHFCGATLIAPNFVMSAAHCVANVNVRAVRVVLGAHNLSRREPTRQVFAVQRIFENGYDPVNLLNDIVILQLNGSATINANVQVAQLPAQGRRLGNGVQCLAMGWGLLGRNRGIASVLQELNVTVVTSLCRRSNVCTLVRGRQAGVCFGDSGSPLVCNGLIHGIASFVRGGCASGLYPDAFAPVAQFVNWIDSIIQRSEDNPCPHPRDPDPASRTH

Neutrophil elastase [7] = target: T2, Neutrophil elastase (Mus musculus, UniProt Q3UP87); assay: Inhibition of mouse Neutrophil elastase
T2 sequence (Q3UP87 whole entry): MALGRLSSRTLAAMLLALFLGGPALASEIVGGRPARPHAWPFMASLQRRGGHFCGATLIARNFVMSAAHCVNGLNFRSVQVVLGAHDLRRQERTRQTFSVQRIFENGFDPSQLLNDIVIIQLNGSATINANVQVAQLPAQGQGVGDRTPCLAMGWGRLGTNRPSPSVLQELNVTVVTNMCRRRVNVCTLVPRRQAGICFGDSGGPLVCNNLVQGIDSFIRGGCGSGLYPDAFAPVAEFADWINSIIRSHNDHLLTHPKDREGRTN

[8] = Volume of distribution at steady state in mouse at 5 mg/kg, iv; type: ADME, organism-based; details: in vivo, read-out: Vdss
[9] = Ratio AUC in mouse tumor to plasma; type: ADME, cell-free; details: tumor and plasma, read-out: Ratio AUC
L1210 [10] = assay: Antiproliferative activity against mouse L1210 cells assessed as inhibition of cell growth incubated for 24 hrs by MTT assay; type: functional, cell-based; details: L1210, 24 h
K562 [11] = assay: Antiproliferative activity against human K562 cells assessed as reduction in cell viability measured for 48 hrs by CCK-8 assay; type: functional, cell-based; details: K562, 48 h
HeLa [12] = assay: Antiproliferative activity against human HeLa cells assessed as reduction in cell viability measured for 48 hrs by CCK-8 assay; type: functional, cell-based
HepG2 [13] = assay: Antiproliferative activity against human HepG2 cells assessed as reduction in cell viability measured for 48 hrs by CCK-8 assay; type: functional, cell-based; details: HepG2, 48 h
MCF7 = assay: Growth inhibition of human MCF7 cells incubated for 72 hrs by MTT assay; type: functional
A549 [14] = assay: Growth inhibition of human A549 cells incubated for 72 hrs by MTT assay; type: functional
HCT-116 [15] = assay: Growth inhibition of human HCT-116 cells incubated for 72 hrs by MTT assay; type: functional
K562 [16] = assay: Growth inhibition of human K562 cells incubated for 72 hrs by MTT assay; type: functional
[17] = AUC in mouse at 8 mg/kg, iv; type: ADME, organism-based; details: in vivo
HeLa [18] = assay: Cytotoxicity against human HeLa cells assessed as reduction in cell viability measured for 48 hrs by MTT assay; type: functional, cell-based
L1210 [19] = assay: Cytotoxicity against mouse L1210 cells assessed as reduction in cell viability measured for 24 hrs by MTT assay; type: functional, cell-based; details: L1210, 24 h
A549 [20] = assay: Antiproliferative activity against human A549 cells assessed as reduction in cell viability measured after 72 hrs by MTT assay; type: functional, cell-based; details: A549, 72 h
HCT-116 [21] = assay: Cytotoxicity against human HCT-116 cells assessed as reduction in cell viability measured after 48 hrs by MTT assay; type: functional, cell-based; details: HCT-116, 48 h
HepG2 [22] = assay: Cytotoxicity against human HepG2 cells assessed as cell growth inhibition measured after 48 hrs by MTT assay; type: functional, cell-based; details: HepG2, 48 h
[23] = Toxicity in ip dosed mouse assessed as lethal dose; type: organism-based; details: in vivo
[24] = Terminal half life in mouse at 8 mg/kg, iv; type: ADME, organism-based; details: in vivo, read-out: beta t1/2
HCT-116 [25] = assay: cells; details: Homo sapiens, HCT-116, 72 h
Description: Cytotoxicity against human HCT-116 cells assessed as reduction in cell growth incubated for 72 hrs by MTT assay

[26] = Toxicity in iv dosed mouse assessed as lethal dose; type: organism-based; details: in vivo
HCT-116 [27] = assay: Antiproliferative activity against human HCT-116 cells assessed as reduction in cell viability measured after 72 hrs by MTT assay; type: functional, cell-based; details: HCT-116, 72 h
[28] = Aqueous solubility of compound at pH 7.4; type: physicochemical
[29] = Primary half life in mouse at 8 mg/kg, iv; type: ADME, organism-based; details: in vivo, read-out: alphat1/2
[30] = Antiproliferative activity against human HCT116-SN6 cells assessed as reduction in cell viability measured after 72 hrs by MTT assay; type: functional, cell-based; details: HCT116-SN6, 72 h
A549 [31] = assay: cells; details: Homo sapiens, A549, 72 h
Description: Cytotoxicity against human A549 cells assessed as reduction in cell growth incubated for 72 hrs by MTT assay

[32] = Antiproliferative activity against human HCT116-G7 cells assessed as reduction in cell viability measured after 72 hrs by MTT assay; type: functional, cell-based; details: HCT116-G7, 72 h
K562 [33] = assay: Cytotoxicity against human K562 cells assessed as reduction in cell growth incubated for 48 hrs by MTT assay; type: functional, cell-based; details: K562, 48 h
HeLa [34] = assay: cells; details: Homo sapiens, 72 h
Description: Cytotoxicity against human HeLa cells assessed as reduction in cell growth incubated for 72 hrs by MTT assay

[35] = Volume of distribution at steady state in mouse at 8 mg/kg, iv; type: ADME, organism-based; details: in vivo, read-out: Vdss
[36] = Clearance in mouse at 8 mg/kg, iv; type: ADME, organism-based; details: in vivo
A549 [37] = assay: cells; details: Homo sapiens, A549, 48 h
Description: Cytotoxicity against human A549 cells assessed as reduction in cell viability measured after 48 hrs by MTT assay

HepG2 [38] = assay: Cytotoxicity against human HepG2 cells assessed as reduction in cell growth incubated for 72 hrs by MTT assay; type: functional, cell-based; details: HepG2, 72 h
[39] = Toxicity in po dosed mouse assessed as lethal dose; type: organism-based; details: in vivo
HeLa [40] = assay: cells; details: Homo sapiens, 24 h
Description: Cytotoxicity against human HeLa cells assessed as reduction in cell viability measured for 24 hrs by SRB assay

L1210 [41] = assay: Cytotoxicity against mouse L1210 cells assessed as reduction in cell viability measured for 24 hrs by SRB assay; type: functional, cell-based; details: L1210, 24 h
L1210 [42] = assay: Cytotoxicity against mouse L1210 cells assessed as reduction in cell growth measured after 72 hrs by MTT assay; type: functional, cell-based; details: L1210, 72 h
A549 [43] = assay: Cytotoxicity against human A549 cells assessed as reduction in cell growth measured after 72 hrs by MTT assay; type: functional, cell-based; details: A549, 72 h
HCT-116 [44] = assay: Cytotoxicity against human HCT-116 cells assessed as reduction in cell growth measured after 72 hrs by MTT assay; type: functional, cell-based; details: HCT-116, 72 h
HeLa [45] = assay: Cytotoxicity against human HeLa cells assessed as reduction in cell growth measured after 72 hrs by MTT assay; type: functional, cell-based
[46] = Antiproliferative activity against human NLF cells expressing ABCG2 assessed as reduction in cell viability measured for 72 hrs by MTT assay; type: functional, cell-based
[47] = Antiproliferative activity against human SK-N-BE(2)-C cells expressing ABCG2 assessed as reduction in cell viability measured for 72 hrs by MTT assay; type: functional, cell-based

half-life [1]: 2.5 h
solubility [2]: 1.83 µM (≈ 4.81 µg/mL)
SMILES: CC[C@H](C)[C@H](NC(=O)[C@H](CCCCN)NC(=O)[C@H](CCCCN)NC(=O)[C@H](C)NC(=O)[C@H](CC(C)C)NC(=O)[C@H](C)NC(=O)[C@H](C)NC(=O)[C@H](CC(C)C)NC(=O)[C@@H](NC(=O)[C@H](CCCCN)NC(=O)[C@H](CC(C)C)NC(=O)[C@H](CC(N)=O)NC(=O)[C@H](CCCCN)NC(=O)[C@H](CCCCN)NC(=O)[C@H](CC(C)C)NC(=O)[C@H](CC(C)C)NC(=O)[C@@H](N)CCCCN)C(C)C)C(=O)N[C@@H](CC(C)C)C(=O)NCC(=O)NCC(=O)N[C@@H](CSSCCO[C@]1(CC)C(=O)OCc2c1cc1n(c2=O)Cc2cc3ccccc3nc2-1)C(N)=O (H-KLLKKNLKVLAALAKKILGGC(X1)-NH2)
Activity (HCT-116 [3]): 98.2%

SMILES: CCCNC(=O)Nc1cccc(S(=O)(=O)Nc2cccc([C@@H](CC(=O)[O-])NC(=O)Nc3ccc(NC(=O)NCCOCCOCCOCCC(=O)N[C@@H](CC(=O)[O-])C(=O)N4CCC[C@H]4C(=O)N[C@H](C(=O)O[C@]4(CC)C(=O)OCc5c4cc4n(c5=O)Cc5c-4nc4ccccc4c5CC)C(C)C)cc3)c2)c1.[Na+].[Na+]
dose excreted at 48 h [4]: 108%
dose excreted at 48 h [5]: 2.4%
IC50 (Neutrophil elastase [6]): 9600 nM
IC50 (Neutrophil elastase [7]): 8900 nM

Vd [8]: 0.73 L/kg
SMILES: CC[C@@]1(O)C(=O)OCc2c1cc1n(c2=O)Cc2c-1nc1ccc(O)cc1c2[Si](C)(C)C(C)(C)C [AR-67]

SMILES: CC[C@@]1(O)C(=O)OCc2c1cc1n(c2=O)Cc2cc3ccc(O)cc3nc2-1
Kp [9]: 6.1

IC50 (L1210 [10]): 56 nM
IC50 (K562 [11]): 500 nM
IC50 (HeLa [12]): 376 nM
IC50 (HepG2 [13]): 60 nM
SMILES: CC[C@@]1(O)C(=O)OCc2c1cc1n(c2=O)Cc2cc3c(CN(C)C)c(O)ccc3nc2-1 [TOPOTECAN]

SMILES: CC[C@@]1(O)C(=O)OCc2c1cc1n(c2=O)Cc2c-1nc1cc(F)c(C)c3c1c2[C@@H](N)CC3.CS(=O)(=O)O.O.O [EXATECAN MESYLATE]
GI50 (MCF7): 0.322 ng/mL
GI50 (A549 [14]): 0.914 ng/mL
GI50 (HCT-116 [15]): 0.347 ng/mL
GI50 (K562 [16]): 10.4 ng/mL

SMILES: CC[C@@]1(O)C(=O)OCc2c1cc1n(c2=O)Cc2cc3ccccc3nc2-1 [CAMPTOTHECIN]
AUC [17]: 212 µg/mL
IC50 (HeLa [18]): 8.9 nM
IC50 (L1210 [19]): 14 nM
EC50 (A549 [20]): 4.17 nM
IC50 (HCT-116 [21]): 2.01 nM
IC50 (HepG2 [22]): 7.25 nM
LD50 [23]: 38 mg/kg
half-life [24]: 4.6 h
IC50 (HCT-116 [25]): 2.01 ng/mL (≈ 0.00577 µM)
LD50 [26]: 38 mg/kg
EC50 (HCT-116 [27]): 3.15 nM
GI50 (MCF7): 1.98 ng/mL (≈ 0.00568 µM)
solubility [28]: 1.83 µM (≈ 0.637 µg/mL)
GI50 (A549 [14]): 5.69 ng/mL (≈ 0.0163 µM)
half-life [29]: 0.35 h
EC50 [30]: 7.63 nM
GI50 (HCT-116 [15]): 3.86 ng/mL (≈ 0.0111 µM)
IC50 (A549 [31]): 0.32 ng/mL (≈ 0.000919 µM)
EC50 [32]: 20.3 nM
IC50 (K562 [33]): 2 nM
IC50 (HeLa [34]): 8.9 ng/mL (≈ 0.0255 µM)
Vd [35]: 10.8 L/kg
clearance [36]: 38 mL/min/kg
IC50 (A549 [37]): 0.32 nM
Activity (HCT-116 [3]): 37.5%
IC50 (HepG2 [38]): 7.25 ng/mL (≈ 0.0208 µM)
LD50 [39]: 50 mg/kg
GI50 (K562 [16]): 54.3 ng/mL (≈ 0.156 µM)

IC50 (HeLa [40]): 122 nM
SMILES: CCc1c2c(nc3ccc(OC(=O)N4CCC(N5CCCCC5)CC4)cc13)-c1cc3c(c(=O)n1C2)COC(=O)[C@]3(O)CC [IRINOTECAN]
IC50 (L1210 [41]): 1200 nM

SMILES: CCc1c2c(nc3ccc(O)cc13)-c1cc3c(c(=O)n1C2)COC(=O)[C@]3(O)CC [7-ETHYL-10-HYDROXYCAMPTOTHECIN]
IC50 (L1210 [42]): 8.9 nM
IC50 (A549 [43]): 1.62 nM
IC50 (HCT-116 [44]): 0.55 nM
IC50 (HeLa [45]): 22 nM

SMILES: CCc1c2c(nc3ccccc13)-c1cc3c(c(=O)n1C2)COC(=O)[C@]3(O)CC
IC50 [46]: 80 nM
IC50 [47]: 7 nM

SMILES: CC[C@@]1(O)C(=O)OCc2c1cc1n(c2=O)Cc2cc3cc4c(cc3nc2-1)OCO4
EC50 (A549 [20]): 0.86 nM
IC50 (HCT-116 [25]): 50 ng/mL (≈ 0.127 µM)
EC50 (HCT-116 [27]): 0.36 nM
EC50 [30]: 2.28 nM
IC50 (A549 [31]): 43 ng/mL (≈ 0.11 µM)
EC50 [32]: 4.14 nM
IC50 (HeLa [34]): 40 ng/mL (≈ 0.102 µM)
IC50 (HepG2 [38]): 104 ng/mL (≈ 0.265 µM)

— ChEMBL document CHEMBL5528075, “Unleashing the Potential of Camptothecin: Exploring Innovative Strategies for Structural Modification and Therapeutic Advancements” (J Med Chem, 2024)
